Experimental data from patent US20120135089A1, “E3 LIGASE INHIBITORS” (priority 2009, published 2012).

Assays:
[1] = test system: Mdm2 and p53 levels; test: Western blot of Mdm2 and p53 protein levels in cell lines; type: cell-based, human; settings: 6 hours; for Mdm2 and p53 levels: U2OS, RKO, HCT116 (p53 wild-type), 5 μg/ml; for p53 levels in RKO and RKO-E6 cells: isogenic RKO and RKO-E6 (HPV-E6) cells; for levels of endogenous and ectopically expressed Mdm2: p53-null H1299 cells
Description: Cells were plated in 384-well format and treated with MG132 (2 hours) or cycloheximide (30 minutes). Steadylite luminescence buffer (PerkinElmer) was added and the relative luminescence levels determined on a Victor3 Plate Reader. Each graph represents the median of 5 replicates normalized to a no treatment control, and one standard deviation is shown. […] The graphs and EC50 values were determined using Graphpad PRISM®. […] U2OS, RKO, and HCT116 cells (p53 wild-type) were incubated with 5 μg/ml (14 μM) of MEL23, 5 μg/ml (15 μM) of MEL24, or 10 μM of MG132 for 6 hours. Cells were lysed and analyzed by Western blotting using anti-Mdm2, anti-p53, and anti-eIF4E antibodies. NT indicates a no treatment control. […] MCF7 cells (p53 wild-type) were incubated with 30 μg/ml (51 μM) etoposide alone or in combination with 50 μM AlIn or 5 μg/ml (14 μM) MEL23, or 5 μg/ml (15 μM) MEL24 for 16 hours. Cells were lysed and analyzed by Western blotting using anti-MDMX and anti-actin antibodies.
H1229 cells were transfected with Mdm2-Flag or remained untransfected. Cells were treated with 5 μg/ml (14 μM) MEL23, 5 μg/ml (15 μM) MEL24, 10 μM MG132, or 1 μg/ml of doxorubicin for 6 hours. Cells were lysed and analyzed by Western blotting using anti-Mdm2 and anti-actin antibodies. The lower band indicated with a star seen with the Mdm2 antibody is a non-specific band. NT indicates a no treatment control. […] RKO and RK0-E6 cells were treated with 5 μg/ml (14 μM) MEL23, 5 μg/ml (15 μM) MEL24, 10 μM MG132, 0.5 μg/ml doxorubicin, 0.5 μg/ml camptothecin or 25 μg/ml Etoposide for 6 hours. Cells were lysed and analyzed by Western blotting using anti-Mdm2, anti-p53, and anti-actin antibodies. The lower band indicated with a star seen with the anti-Mdm2 antibody is a non-specific band. […] RKO cells were treated with 5 μg/ml (14 μM) MEL23, 5 μg/ml (15 μM) MEL24, 10 μM MG132 or 2 μg/ml doxorubicin for 6 hours. Cells were lysed and analyzed by Western blotting using anti-Mdm2, anti-p53, anti-phospho-Ser15 p53, and anti-eiF4E antibodies.
Cells were seeded and treated with the indicated compound(s). Cells were lysed after each time point in a buffer of 50 mM TrisHCl pH 7.5, 200 mM NaCl, 0.5% NP-40, and 1 complete mini EDTA-free protease inhibitor cocktail tablet per 10 mL of buffer (Roche, Cat. No. 8360170). Protein content was quantified using a Biorad protein assay reagent (Bio-Rad Laboratories, Hercules, Calif., Cat. No. 500-0006). SDS sample buffer was added to the samples, and the mixture was boiled for 5 minutes. Equal amounts of protein were resolved on a 1D SDS-PAGE gel. Following separation proteins were transferred to nitrocellulose membrane, blocked with 5% milk, and then incubated with primary antibody overnight at 4° C. The membrane was incubated with secondary-HRP antibody for 45 minutes at room temperature and developed with SuperSignal West Pico Substrate (Pierce, Rockford, Ill., Cat. No. 34080).
Cells were lysed and analyzed by Western blotting using anti-Mdm2, anti-p53, and anti-actin antibodies. The lower band seen with the Mdm2 antibody is a non-specific band. NT indicates no treatment control.
Referring now to FIG. 28e, endogenous Mdm2 and p53 protein levels with MEL17 treatment are shown. Briefly, U2OS, RKO, and HCT116 cells (p53 wild-type) were incubated with 5 μg/ml of MEL17 or 10 μM of MG132 for 6 hours. Cells were lysed and analyzed by Western blotting using anti-Mdm2, anti-p53, and anti-actin antibodies. The lower band seen with the Mdm2 antibody is a non-specific band.

[2] = test system: Mdm2-ubiquitin conjugates; test: cell-based Mdm2 ubiquitination assay (HA-ubiquitin immunoprecipitation); set-up: species or system human; settings: Mdm2-luciferase cells, with 10 μM MG132
Description: To obtain the results shown in FIG. 4A, Mdm2-luciferase cells were transfected with ubiquitin-HA and treated 8 hours later with 10 μg/ml (28 μM) MEL23, 10 μg/ml (31 μM) MEL24, or a DMSO control. After 16 hours, cells were additionally treated with 10 μM MG132 or a DMSO control. After 3 hours, cells were lysed and immunoprecipitated for 3 hours with anti-HA affinity matrix. Total lysates and immunoprecipitated samples were analyzed by Western blotting using anti-Mdm2 antibody. NT indicates a no treatment control. […] After 8 hours, cells were treated with 10 μg/ml (28 μM) MEL23, 10 μg/ml (31 μM) MEL24, or a DMSO control. After 16 hours, cells were additionally treated with 10 μM MG132 or a DMSO control. After 3 hours cells were lysed and analyzed by Western blotting using anti-p53 antibody. […]
The Mdm2-luciferase cell line was transfected with HA-ubiquitin and pre-treated with 10 μg/ml MEL23 or MEL24, followed by 10 μM MG132. […] Cells lysates were immunoprecipitated with an anti-HA antibody and analyzed by Western blotting. […]
Briefly, Mdm2-luciferase cells were transfected with HA-ubiquitin. […] Input lysates and immunoprecipitated samples were analyzed by Western blotting using anti-Mdm2 antibody.
Briefly, Mdm2-luciferase cells were transfected with HA-ubiquitin. […] Input lysates and immunoprecipitated samples were analyzed by Western blotting using anti-Mdm2 antibody. […]

Row | SMILES | Mdm2 and p53 levels [1] | p53 levels in RKO and RKO-E6 cells [1] | levels of endogenous and ectopically expressed Mdm2 [1] | Mdm2 ubiquitination in cells (Mdm2-ubiquitin conjugates) [2]
1 | CCCCn1c(=O)[nH]c(O)c(C2NCCc3c2[nH]c2ccccc32)c1=O (centres unmarked) [MEL23] | increased | only increased levels of p53 in RKO cells | increased after treatment | significantly less Mdm2-ubiquitin conjugates were immunoprecipitated
2 | Cn1c(O)c(C2NCCc3c2[nH]c2ccccc32)c(=O)n(C)c1=O (centres unmarked) [MEL24] | increased | only increased levels of p53 in RKO cells | increased after treatment | significantly less Mdm2-ubiquitin conjugates were immunoprecipitated
